Results from PubChem BioAssay AID806 (SRMLSC, 2007).
Calls of active or inactive are those of the source. How the calls were made is not given here.

Tested on: virus-infected cells, CPE inhibition, dose response
Test: PubChem AID 806
Settings: for EC90: measured here: EC90 CPE inhibition; for CC50: measured here: cytotoxicity, cell viability IC50

`NS(=O)(=O)c1ccc(CCNC(=O)C2CCCCN2S(=O)(=O)c2ccccc2)cc1` (stereo unspecified) was tested, and the EC50 was > 60 µM (inactive), the EC90 was greater than 60 µM and the CC50 was greater than 60 µM.
In the case of `CCSc1nnc([C@H](Cc2ccccc2)NC(=O)OC(C)(C)C)o1`, the EC50 is reported as > 60 µM (inactive), the EC90 is reported as greater than 60 µM and the CC50 is reported as greater than 60 µM.
With `CCOC(=O)/C=C1\SCC(=O)N1CC(=O)Nc1ccc2c(c1)CCC2` the EC50 was > 60 µM (inactive), the EC90 was greater than 60 µM and the CC50 was greater than 60 µM.
For `Cc1cc2cc(CNC(=O)c3ccc(S(=O)(=O)N(C)C)cc3)ccc2n1C`, the EC50 was > 60 µM (inactive), the EC90 was greater than 60 µM and the CC50 was greater than 60 µM.
`CSc1nnc(-c2ccccc2Cl)o1` was tested, and the EC50 was > 60 µM (inactive), the EC90 was greater than 60 µM and the CC50 was greater than 60 µM.
With `CCOC(=O)CN(C(=O)Cn1nnc2ccccc21)C(C(=O)NCCOC)c1ccccc1C` (stereo unspecified) the EC50 was > 60 µM (inactive), the EC90 was greater than 60 µM and the CC50 was greater than 60 µM.
Compound `Cc1ccc(C2NC(=O)NC3=C2CCc2ccccc23)cc1` (stereo unspecified) has an EC50 of 1.75 µM, an EC90 greater than 60 µM and a CC50 greater than 60 µM.
For `O=C(NC1CCS(=O)(=O)C1)C1CCCCN1S(=O)(=O)c1ccc(Cl)cc1` (stereo unspecified), the EC50 was > 60 µM (inactive), the EC90 was greater than 60 µM and the CC50 was greater than 60 µM.
`COc1ccccc1NC(=O)c1cc2ccccc2o1` was tested, and the EC50 was > 60 µM (inactive), the EC90 was greater than 60 µM and the CC50 was greater than 60 µM.
For `COc1ccc(OC)c(Nc2ncnc3c2cnn3-c2cccc(C)c2)c1`, the EC50 was > 60 µM (inactive), the EC90 was greater than 60 µM and the CC50 was greater than 60 µM.
In the case of `COc1ccccc1Cn1c(=O)c2ccccc2n2c(SCc3csc(C)n3)nnc12`, the EC50 is reported as > 60 µM (inactive), the EC90 is reported as greater than 60 µM and the CC50 is reported as greater than 60 µM.
`CN(C)S(=O)(=O)c1ccc(C(=O)NCc2ccccc2)cc1` was tested, and the EC50 was > 60 µM (inactive), the EC90 was greater than 60 µM and the CC50 was greater than 60 µM.
`COC(=O)CSc1nnc([C@H](Cc2ccccc2)NC(=O)OC(C)(C)C)o1` was tested, and the EC50 was > 60 µM (inactive), the EC90 was greater than 60 µM and the CC50 was greater than 60 µM.
With `Cc1ccc(OCC(=O)Nc2ccc(-c3nnc(-c4ccco4)o3)cc2)cc1` the EC50 was > 60 µM (inactive), the EC90 was greater than 60 µM and the CC50 was greater than 60 µM.
`O=C(CSc1nnc2sc3ccccc3n12)N1CCN(c2ccccc2)CC1` was tested, and the EC90 was greater than 60 µM and the CC50 was greater than 60 µM.
`O=C(Nc1ccccn1)c1cc2ccccc2o1` was tested, and the EC50 was > 60 µM (inactive), the EC90 was greater than 60 µM and the CC50 was 23.9 µM.
With `O=C1CC(C(=O)Nc2ccccc2)C2(CCCCC2)O1` (stereo unspecified) the EC50 was > 60 µM (inactive), the EC90 was greater than 60 µM and the CC50 was greater than 60 µM.
With `CC(C)NC(=O)CSc1nnc2sc3ccccc3n12` the EC50 was > 60 µM (inactive), the EC90 was greater than 60 µM and the CC50 was greater than 60 µM.
With `O=C1NCCCc2c1oc1cc(Br)c(O)c(Br)c21` the EC50 was > 60 µM (inactive), the EC90 was greater than 60 µM and the CC50 was greater than 60 µM.
`COc1ccc(C)cc1NC(=O)c1cc2ccccc2o1` was tested, and the EC50 was > 60 µM (inactive), the EC90 was greater than 60 µM and the CC50 was greater than 60 µM.
In the case of `CC(c1ccco1)N(C(=O)COc1ccc(Cl)cc1Cl)c1ccccn1` (stereo unspecified), the EC50 is reported as > 60 µM (inactive), the EC90 is reported as greater than 60 µM and the CC50 is reported as greater than 60 µM.
`CCOc1ccccc1Nc1ncnc2c1cnn2-c1ccccc1` was tested, and the EC50 was > 60 µM (inactive), the EC90 was greater than 60 µM and the CC50 was greater than 60 µM.
In the case of `CCOc1ccc(NC(=O)CCS(=O)(=O)c2cccc3nsnc23)cc1`, the EC50 is reported as > 60 µM (inactive), the EC90 is reported as greater than 60 µM and the CC50 is reported as greater than 60 µM.
For `CCC(=O)N1CCn2c1nc1ccccc12`, the EC50 was > 60 µM (inactive), the EC90 was greater than 60 µM and the CC50 was greater than 60 µM.
In the case of `Cc1c(C(=O)Nc2ccncc2)oc2ccccc12`, the EC50 is reported as > 60 µM (inactive), the EC90 is reported as greater than 60 µM and the CC50 is reported as greater than 60 µM.
`O=C(NCC1CCCO1)C1CCCCN1S(=O)(=O)c1ccc(F)cc1` (stereo unspecified) was tested, and the EC50 was > 60 µM (inactive), the EC90 was greater than 60 µM and the CC50 was greater than 60 µM.
In the case of `O=C(CSc1ccc2nnc(-c3ccccn3)n2n1)NCc1ccco1`, the EC50 is reported as > 60 µM (inactive), the EC90 is reported as greater than 60 µM and the CC50 is reported as greater than 60 µM.
For `COc1ccc(OC)c(Nc2ncnc3c2cnn3-c2ccccc2)c1`, the EC50 was > 60 µM (inactive), the EC90 was greater than 60 µM and the CC50 was greater than 60 µM.
`CC(C)(C)c1ccc(OCCn2ccccc2=O)cc1` was tested, and the EC50 was > 60 µM (inactive), the EC90 was greater than 60 µM and the CC50 was 40.9 µM.
`CC(C)c1cccc(C(C)C)c1OCCCCN1CCCC1` was tested, and the EC50 was > 60 µM (inactive), the EC90 was greater than 60 µM and the CC50 was greater than 60 µM.
In the case of `Cc1cc(C(=O)Nc2c(C)n(C)n(-c3ccccc3)c2=O)cs1`, the EC50 is reported as > 60 µM (inactive), the EC90 is reported as greater than 60 µM and the CC50 is reported as greater than 60 µM.
For `COc1ccc(-n2ncc3c(Nc4cccc(C)c4)ncnc32)cc1`, the EC50 was > 60 µM (inactive), the EC90 was greater than 60 µM and the CC50 was greater than 60 µM.
With `CCOc1ccc(NC(=O)C2CCCCN2S(=O)(=O)c2ccccc2)cc1` (stereo unspecified) the EC50 was > 60 µM (inactive), the EC90 was greater than 60 µM and the CC50 was greater than 60 µM.
For `O=C(CSc1ccc2nnc(-c3ccccc3)n2n1)NCc1ccco1`, the EC50 was > 60 µM (inactive), the EC90 was greater than 60 µM and the CC50 was greater than 60 µM.
With `C#CCSc1nnc(-c2ccc(C)cc2)o1` the EC50 was > 60 µM (inactive), the EC90 was greater than 60 µM and the CC50 was greater than 60 µM.
With `CC(C)(C)OC(=O)NCCc1nnc(SCc2ccccc2Cl)o1` the EC50 was > 60 µM (inactive), the EC90 was greater than 60 µM and the CC50 was greater than 60 µM.
For `Cc1ccccc1Nc1ncnc2c1cnn2-c1ccccc1`, the EC50 was > 60 µM (inactive), the EC90 was greater than 60 µM and the CC50 was greater than 60 µM.
`CCCCN(C(=O)Cn1nnc2ccccc21)C(C(=O)NCCOC)c1ccc(OC)cc1` (stereo unspecified) was tested, and the EC50 was > 60 µM (inactive), the EC90 was greater than 60 µM and the CC50 was greater than 60 µM.
With `O=c1[nH]c2ccccc2n1Cc1ccc(Cl)cc1` the EC50 was > 60 µM (inactive), the EC90 was greater than 60 µM and the CC50 was greater than 60 µM.
For `O=C(C1CCCCN1S(=O)(=O)c1ccccc1)N1CCN(Cc2ccccc2)CC1` (stereo unspecified), the EC50 was > 60 µM (inactive), the EC90 was greater than 60 µM and the CC50 was greater than 60 µM.
In the case of `Cc1cc(=O)n2c(-c3ccccc3C)n[nH]c2n1`, the EC50 is reported as > 60 µM (inactive), the EC90 is reported as greater than 60 µM and the CC50 is reported as greater than 60 µM.
`CC(C)(C)c1ccc(S(=O)(=O)N2CCCCC2C(=O)NCc2ccccn2)cc1` (stereo unspecified) was tested, and the EC50 was > 60 µM (inactive), the EC90 was greater than 60 µM and the CC50 was greater than 60 µM.
For `OCC#CCSc1nnc(-c2ccncc2)o1`, the EC50 was > 60 µM (inactive), the EC90 was greater than 60 µM and the CC50 was greater than 60 µM.
In the case of `COCc1cc(=O)n2c(-c3ccccc3OC)n[nH]c2n1`, the EC50 is reported as > 60 µM (inactive), the EC90 is reported as greater than 60 µM and the CC50 is reported as greater than 60 µM.
In the case of `COc1cccc(NC(=O)C2CC(=O)OC23CCOC(C)(C)C3)c1` (stereo unspecified), the EC50 is reported as > 60 µM (inactive), the EC90 is reported as greater than 60 µM and the CC50 is reported as greater than 60 µM.
In the case of `COc1ccc(NC(=O)c2cc3ccccc3o2)cc1`, the EC50 is reported as > 60 µM (inactive), the EC90 is reported as greater than 60 µM and the CC50 is reported as greater than 60 µM.
For `CCOC(=O)/C=C1\SCC(=O)N1CC(=O)NC1CCCCC1`, the EC50 was > 60 µM (inactive), the EC90 was greater than 60 µM and the CC50 was greater than 60 µM.
With `Cc1cc(C(=O)Nc2c(C)n(C)n(-c3ccccc3)c2=O)c(C)o1` the EC50 was > 60 µM (inactive), the EC90 was greater than 60 µM and the CC50 was greater than 60 µM.
For `CSc1nnc(-c2ccc(Cl)cc2Cl)o1`, the EC50 was 48.5 µM (inactive), the EC90 was greater than 60 µM and the CC50 was greater than 60 µM.
With `COc1ccccc1CNC(=O)c1c(O)c2cc(OC)c(OC)cc2[nH]c1=O` the EC50 was > 60 µM (inactive), the EC90 was greater than 60 µM and the CC50 was greater than 60 µM.
In the case of `CCC(C)(C)NC(=O)C(c1cccnc1)N(CCOC)C(=O)Cn1nnc2ccccc21` (stereo unspecified), the EC50 is reported as > 60 µM (inactive), the EC90 is reported as greater than 60 µM and the CC50 is reported as greater than 60 µM.
`O=C(COc1ccccc1)N(Cc1ccco1)c1ccc(O)cc1` was tested, and the EC50 was > 60 µM (inactive), the EC90 was greater than 60 µM and the CC50 was greater than 60 µM.
In the case of `COc1ccc(OC)c(C2=NOC(C(=O)Nc3cc(C)nn3-c3ccccc3)C2)c1` (stereo unspecified), the EC50 is reported as > 60 µM (inactive), the EC90 is reported as greater than 60 µM and the CC50 is reported as greater than 60 µM.
In the case of `CC(=O)Nc1ccc(Nc2ncnc3c2cnn3-c2ccc(C)cc2C)cc1`, the EC50 is reported as > 60 µM (inactive), the EC90 is reported as greater than 60 µM and the CC50 is reported as greater than 60 µM.
With `COc1ccc(S(=O)(=O)Nc2ccc(F)cc2)cc1N(C)S(=O)(=O)c1ccc(Cl)cc1` the EC50 was > 60 µM (inactive), the EC90 was greater than 60 µM and the CC50 was greater than 60 µM.
With `Cc1cccc(-n2ncc3c(Nc4ccc(F)cc4)ncnc32)c1` the EC50 was > 60 µM (inactive), the EC90 was greater than 60 µM and the CC50 was greater than 60 µM.
`Cc1cccc(NC(=O)c2cc3ccccc3o2)c1` was tested, and the EC50 was > 60 µM (inactive), the EC90 was greater than 60 µM and the CC50 was greater than 60 µM.
For `Cc1c(NC(=O)CSc2nnc3sc4ccccc4n23)c(=O)n(-c2ccccc2)n1C`, the EC50 was > 60 µM (inactive), the EC90 was greater than 60 µM and the CC50 was greater than 60 µM.
`COc1ccccc1CNC(=O)c1ccc(S(=O)(=O)N(C)C)cc1` was tested, and the EC50 was > 60 µM (inactive), the EC90 was greater than 60 µM and the CC50 was greater than 60 µM.
For `COc1ccccc1Nc1ncnc2c1cnn2-c1cccc(C)c1`, the EC50 was > 60 µM (inactive), the EC90 was greater than 60 µM and the CC50 was greater than 60 µM.
For `COc1ccccc1Cn1c(=O)c2ccccc2n2c(Sc3ncnc4sccc34)nnc12`, the EC50 was > 60 µM (inactive), the EC90 was greater than 60 µM and the CC50 was greater than 60 µM.
In the case of `CC(=O)Nc1ccc(Nc2ncnc3c2cnn3-c2ccccc2)cc1`, the EC50 is reported as > 60 µM (inactive), the EC90 is reported as greater than 60 µM and the CC50 is reported as greater than 60 µM.
`O=C(COc1ccccc1)Nc1ccc(-c2nnc(-c3ccco3)o2)cc1` was tested, and the EC50 was 52 µM (inactive), the EC90 was greater than 60 µM and the CC50 was greater than 60 µM.
With `O=Nc1c(O)n(Cc2cccc(Cl)c2)c2ccccc12` the EC50 was > 60 µM (inactive), the EC90 was greater than 60 µM and the CC50 was greater than 60 µM.
`O=C(Nc1c(-c2ccccc2)nc2sccn12)c1ccccc1` was tested, and the EC50 was 0.634 µM, the EC90 was greater than 60 µM and the CC50 was greater than 60 µM.
With `COc1ccc(NC(=O)C2CC(=O)OC23CCOC(C)(C)C3)cc1` (stereo unspecified) the EC50 was > 60 µM (inactive), the EC90 was greater than 60 µM and the CC50 was greater than 60 µM.
In the case of `S=C(Nc1ccccc1)N1CCn2c1nc1ccccc12`, the EC50 is reported as > 60 µM (inactive), the EC90 is reported as greater than 60 µM and the CC50 is reported as greater than 60 µM.
`Cc1nc2c(C(=O)N3CCOCC3)cnn2c(C)c1Cc1ccc(Cl)cc1` was tested, and the EC50 was > 60 µM (inactive), the EC90 was greater than 60 µM and the CC50 was greater than 60 µM.
In the case of `Cc1cccc(-n2ncc3c(N4CCCc5ccccc54)ncnc32)c1`, the EC50 is reported as > 60 µM (inactive), the EC90 is reported as greater than 60 µM and the CC50 is reported as greater than 60 µM.
